#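 Protocol summary: plate cells (96-well), add compound at 5 concentrations, incubate 48 h, interpolate endpoints linearly. GI50 = concentration required for 50% inhibition of growth. Definition used: TGI = concentration required for complete inhibition of growth.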
# Experiments:
# Test in all cases: NCI tumour cell line growth inhibition, 48 h
# UO-31 renal = tested on: UO-31 renal
# COLO 205 colon = tested on: COLO 205 colon
# OVCAR-3 ovarian = tested on: OVCAR-3 ovarian
# MDA-MB-468 breast = tested on: MDA-MB-468 breast
# M14 melanoma = tested on: M14 melanoma
# NCI-H226 lung = tested on: NCI-H226 lung
# NCI-H460 lung = tested on: NCI-H460 lung
# UACC-62 melanoma = tested on: UACC-62 melanoma
# MOLT-4 leukemia = tested on: MOLT-4 leukemia
# A498 renal = tested on: A498 renal
# IGROV1 ovarian = tested on: IGROV1 ovarian
# KM12 colon = tested on: KM12 colon
# SNB-19 CNS = tested on: SNB-19 CNS
# HCT-116 colon = tested on: HCT-116 colon
# MDA-MB-231 breast = tested on: MDA-MB-231 breast
# A549 NSCLC = tested on: A549 NSCLC
# HOP-62 NSCLC = tested on: HOP-62 NSCLC
# HCT-15 colon = tested on: HCT-15 colon
# TK-10 renal = tested on: TK-10 renal
# PC-3 prostate = tested on: PC-3 prostate
# SF-295 CNS = tested on: SF-295 CNS
# HL-60(TB) leukemia = tested on: HL-60(TB) leukemia
# SF-268 CNS = tested on: SF-268 CNS
# K-562 leukemia = tested on: K-562 leukemia
# NCI-H522 lung = tested on: NCI-H522 lung
# SF-539 CNS = tested on: SF-539 CNS
# U251 CNS = tested on: U251 CNS
# T-47D breast = tested on: T-47D breast
# OVCAR-4 ovarian = tested on: OVCAR-4 ovarian
# RPMI-8226 leukemia = tested on: RPMI-8226 leukemia
# OVCAR-5 ovarian = tested on: OVCAR-5 ovarian
# UACC-257 melanoma = tested on: UACC-257 melanoma
# ACHN renal = tested on: ACHN renal
# SK-OV-3 ovarian = tested on: SK-OV-3 ovarian
# HOP-92 NSCLC = tested on: HOP-92 NSCLC
# HCC-2998 colon = tested on: HCC-2998 colon
# HT29 colon = tested on: HT29 colon
# HS 578T breast = tested on: HS 578T breast
# SK-MEL-2 melanoma = tested on: SK-MEL-2 melanoma
# NCI-H23 lung = tested on: NCI-H23 lung
# CCRF-CEM leukemia = tested on: CCRF-CEM leukemia
# OVCAR-8 ovarian = tested on: OVCAR-8 ovarian
# MALME-3M melanoma = tested on: MALME-3M melanoma
# SR leukemia = tested on: SR leukemia
# CAKI-1 renal = tested on: CAKI-1 renal
# BT-549 breast = tested on: BT-549 breast
# LOX IMVI melanoma = tested on: LOX IMVI melanoma
# RXF 393 renal = tested on: RXF 393 renal
# MCF7 breast = tested on: MCF7 breast
# SNB-75 CNS = tested on: SNB-75 CNS
# EKVX NSCLC = tested on: EKVX NSCLC
# MDA-MB-435 = tested on: MDA-MB-435
# NCI/ADR-RES ovarian = tested on: NCI/ADR-RES ovarian
# DU-145 prostate = tested on: DU-145 prostate
# SN12C renal = tested on: SN12C renal
# 786-0 renal = tested on: 786-0 renal
# SK-MEL-5 melanoma = tested on: SK-MEL-5 melanoma
# SW-620 colon = tested on: SW-620 colon
# SK-MEL-28 melanoma = tested on: SK-MEL-28 melanoma
smiles,measurement,setting,value
CC1(C)CC[C@]2(C(=O)O)CC[C@]3(C)C(=CCC4[C@@]5(C)C[C@@H](O)[C@@H]6OC(c7ccccc7Br)OC[C@@]6(C)C5CC[C@]43C)C2C1 (stereo partly drawn),GI50,UO-31 renal,2.68 µM
same,TGI,UO-31 renal,12.4 µM
same,GI50,COLO 205 colon,1.99 µM
same,TGI,COLO 205 colon,4.89 µM
same,GI50,OVCAR-3 ovarian,2.99 µM
same,TGI,OVCAR-3 ovarian,12.7 µM
same,GI50,MDA-MB-468 breast,2.83 µM
same,TGI,MDA-MB-468 breast,20.7 µM
same,GI50,M14 melanoma,3.88 µM
same,TGI,M14 melanoma,17.7 µM
same,GI50,NCI-H226 lung,3.52 µM
same,TGI,NCI-H226 lung,34.9 µM
same,GI50,NCI-H460 lung,2.51 µM
same,TGI,NCI-H460 lung,9.77 µM
same,GI50,UACC-62 melanoma,4.8 µM
same,TGI,UACC-62 melanoma,24.8 µM
same,GI50,MOLT-4 leukemia,2.67 µM
same,TGI,MOLT-4 leukemia,23.4 µM
same,GI50,A498 renal,3.28 µM
same,TGI,A498 renal,12.6 µM
same,GI50,IGROV1 ovarian,4.53 µM
same,TGI,IGROV1 ovarian,30.1 µM
same,GI50,KM12 colon,3.91 µM
same,TGI,KM12 colon,26.2 µM
same,GI50,SNB-19 CNS,3.82 µM
same,TGI,SNB-19 CNS,> 100 µM
same,GI50,HCT-116 colon,2.65 µM
same,TGI,HCT-116 colon,11.1 µM
same,GI50,MDA-MB-231 breast,4.01 µM
same,TGI,MDA-MB-231 breast,21.9 µM
same,GI50,A549 NSCLC,2.11 µM
same,TGI,A549 NSCLC,50.1 µM
same,GI50,HOP-62 NSCLC,3.9 µM
same,TGI,HOP-62 NSCLC,22.4 µM
same,GI50,HCT-15 colon,2.21 µM
same,TGI,HCT-15 colon,12.9 µM
same,GI50,TK-10 renal,4.55 µM
same,TGI,TK-10 renal,> 100 µM
same,GI50,PC-3 prostate,3.99 µM
same,TGI,PC-3 prostate,> 100 µM
same,GI50,SF-295 CNS,2.79 µM
same,TGI,SF-295 CNS,18.8 µM
same,GI50,HL-60(TB) leukemia,2.57 µM
same,TGI,HL-60(TB) leukemia,9.75 µM
same,GI50,SF-268 CNS,3.45 µM
same,TGI,SF-268 CNS,> 100 µM
same,GI50,K-562 leukemia,2.68 µM
same,TGI,K-562 leukemia,> 100 µM
same,GI50,NCI-H522 lung,3.45 µM
same,TGI,NCI-H522 lung,78.4 µM
same,GI50,SF-539 CNS,3.59 µM
same,TGI,SF-539 CNS,12.8 µM
same,GI50,U251 CNS,3.08 µM
same,TGI,U251 CNS,14.3 µM
same,GI50,T-47D breast,3.46 µM
same,TGI,T-47D breast,> 100 µM
same,GI50,OVCAR-4 ovarian,3.61 µM
same,TGI,OVCAR-4 ovarian,> 100 µM
same,GI50,RPMI-8226 leukemia,2.66 µM
same,TGI,RPMI-8226 leukemia,71.8 µM
same,GI50,OVCAR-5 ovarian,4.08 µM
same,TGI,OVCAR-5 ovarian,25 µM
same,GI50,UACC-257 melanoma,4.12 µM
same,TGI,UACC-257 melanoma,30.9 µM
same,GI50,ACHN renal,2.53 µM
same,TGI,ACHN renal,18.7 µM
same,GI50,SK-OV-3 ovarian,3.8 µM
same,TGI,SK-OV-3 ovarian,44.1 µM
same,GI50,HOP-92 NSCLC,4.72 µM
same,TGI,HOP-92 NSCLC,37.1 µM
same,GI50,HCC-2998 colon,3.63 µM
same,TGI,HCC-2998 colon,20.8 µM
same,GI50,HT29 colon,3.42 µM
same,TGI,HT29 colon,16.7 µM
same,GI50,HS 578T breast,2.82 µM
same,TGI,HS 578T breast,14.9 µM
same,GI50,SK-MEL-2 melanoma,4.03 µM
same,TGI,SK-MEL-2 melanoma,20.7 µM
same,GI50,NCI-H23 lung,3.72 µM
same,TGI,NCI-H23 lung,43.7 µM
same,GI50,CCRF-CEM leukemia,3.26 µM
same,TGI,CCRF-CEM leukemia,35.4 µM
same,GI50,OVCAR-8 ovarian,3.48 µM
same,TGI,OVCAR-8 ovarian,> 100 µM
same,GI50,MALME-3M melanoma,3.78 µM
same,TGI,MALME-3M melanoma,19.3 µM
same,GI50,SR leukemia,4.15 µM
same,TGI,SR leukemia,> 100 µM
same,GI50,CAKI-1 renal,3.16 µM
same,TGI,CAKI-1 renal,> 100 µM
same,GI50,BT-549 breast,3.11 µM
same,TGI,BT-549 breast,13.1 µM
same,GI50,LOX IMVI melanoma,3.49 µM
same,TGI,LOX IMVI melanoma,13.9 µM
same,GI50,RXF 393 renal,4.37 µM
same,TGI,RXF 393 renal,8.95 µM
same,GI50,MCF7 breast,3.29 µM
same,TGI,MCF7 breast,> 100 µM
same,GI50,SNB-75 CNS,2.44 µM
same,TGI,SNB-75 CNS,> 100 µM
same,GI50,EKVX NSCLC,2.68 µM
same,TGI,EKVX NSCLC,36.5 µM
same,GI50,MDA-MB-435,3.95 µM
same,TGI,MDA-MB-435,23.5 µM
same,GI50,NCI/ADR-RES ovarian,3.17 µM
same,TGI,NCI/ADR-RES ovarian,> 100 µM
same,GI50,DU-145 prostate,3.71 µM
same,TGI,DU-145 prostate,> 100 µM
same,GI50,SN12C renal,3.14 µM
same,TGI,SN12C renal,17.6 µM
same,GI50,786-0 renal,3.61 µM
same,TGI,786-0 renal,15.3 µM
same,GI50,SK-MEL-5 melanoma,3.6 µM
same,TGI,SK-MEL-5 melanoma,13.9 µM
same,GI50,SW-620 colon,3.43 µM
same,TGI,SW-620 colon,30.9 µM
same,GI50,SK-MEL-28 melanoma,4.69 µM
same,TGI,SK-MEL-28 melanoma,37.2 µM
